The values that follow come from patent publication US7595340B2, “Serotonin and norepinephrine reuptake inhibitor and uses thereof” (Wyeth, priority 2005, dated 2009).

≈ marks a conversion by molar mass, not a printed value.

In data set [1] the target is human serotonin transporter (Homo sapiens, UniProt P31645). In words: human serotonin transporter assay (in-house). Format: binding. The settings on record: initial experiments, in-house assays. An excerpt:
In initial experiments using in-house assays, 4-[2-dimethylamino-1-(4-hydroxy-phenyl)-ethyl]-tetrahydro-pyran-4-ol has been found active in a human serotonin transporter assay.

The nature of data set [2]: Solution stability in aqueous solutions. Format: physicochemical. As to conditions: room temperature, all aqueous solutions (pH 1.25-8.8).
The nature of a further data set: pH-solubility profile. It is filed as physicochemical. The settings on record: aqueous solution, thermodynamic from solid. An excerpt: FIG. 4 provides a chart of the pH - solubility profile of 4-[2-dimethylamino-1-(4-phenyl)-ethyl-tetrahydro-pyran-4-ol.
Another data set is described as follows: Hygroscopicity profile. Format: physicochemical. An excerpt: FIG. 2 provides a chart of the hygroscopicity profile of 4-[2-dimethylamino-1-(4-phenyl)-ethyl-tetrahydro-pyran-4-ol.

human serotonin transporter, sequence (P31645 whole entry): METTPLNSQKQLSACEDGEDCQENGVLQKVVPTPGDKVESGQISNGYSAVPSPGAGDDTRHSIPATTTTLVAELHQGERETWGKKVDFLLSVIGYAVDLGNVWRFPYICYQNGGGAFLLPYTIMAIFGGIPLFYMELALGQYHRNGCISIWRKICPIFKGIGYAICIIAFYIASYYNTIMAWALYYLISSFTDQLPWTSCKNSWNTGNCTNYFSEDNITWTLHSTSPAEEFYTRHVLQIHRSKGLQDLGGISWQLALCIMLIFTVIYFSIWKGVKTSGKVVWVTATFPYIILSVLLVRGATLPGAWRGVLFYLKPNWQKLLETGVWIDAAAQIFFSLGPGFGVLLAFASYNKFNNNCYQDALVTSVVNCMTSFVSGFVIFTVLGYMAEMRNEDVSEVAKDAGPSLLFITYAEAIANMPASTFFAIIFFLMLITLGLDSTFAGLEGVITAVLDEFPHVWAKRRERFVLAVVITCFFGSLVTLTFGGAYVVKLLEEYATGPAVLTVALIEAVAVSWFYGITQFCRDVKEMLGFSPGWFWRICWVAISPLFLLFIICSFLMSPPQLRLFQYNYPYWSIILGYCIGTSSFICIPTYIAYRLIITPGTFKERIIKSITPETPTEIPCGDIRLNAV

Take `CN(C)CC(c1ccc(O)cc1)C1(O)CCOCC1` (stereo not drawn) [4-[2-Dimethylamino-1-(4-Hydroxy-Phenyl)-ethyl]-Tetrahydro-Pyran-4-ol]: in data set [1], the “activity in human serotonin transporter assay” value is “active”. Moreover, the “Solution Stability (time stable)” value in data set [2] was “at least 24 hours”. Moreover, the solubility is 3910 µg/mL (≈ 14.7 mM) in the data set “pH-solubility profile” (pH 4.4, aqueous buffer, Final pH 4.40); 3470 µg/mL (≈ 13.1 mM) in “pH-solubility profile” (pH 7.1, aqueous buffer, Final pH 7.10); 2960 µg/mL (≈ 11.2 mM) in “pH-solubility profile” (pH 8.8, aqueous buffer, Final pH 8.80); 13600 µg/mL (≈ 51.1 mM) in “pH-solubility profile” (simulated gastric fluid, Final pH 1.25). The Hygroscopicity result in the data set “Hygroscopicity profile” was “Non-hygroscopic”. Further, the “Hygroscopicity, weight gain” value in “Hygroscopicity profile” (@ 70% RH) was 2%; in the data set “Hygroscopicity profile” (@ 90% RH, weight gain was lost when returned to 10% RH or 0% RH) it was 6%.

In general, solubility refers to the concentration that dissolves in the medium under given conditions. A higher solubility goes with much dissolved substance.
